Results: patent publication US20210244704A1, “Cabazitaxel in mCRPC Patients Previously Treated with Docetaxel and Who Failed a Prior androgen signaling targeted inhibitor Agent” (SANOFI MATURE IP, priority 2019, published 2021)
Marks after values point to notes of the source that are not given here.

Legend:
[1] = system: mCRPC patients, safety population; test: Same clinical study: safety (adverse events, laboratory abnormalities, dose reductions); assay type: in vivo, human
Method: For patients in Arm A, cabazitaxel 25 mg/m^2 was administered intravenously over 1 hour every 3 weeks along with oral prednisone 10 mg given daily. Primary prophylactic granulocyte-colony stimulating factor (G-CSF) was required at each cycle for all patients in the cabazitaxel arm
For patients in Arm B, abiraterone acetate was administered orally at 1000 mg once daily along with oral prednisone 5 mg given twice daily or enzalutamide was administered orally at 160 mg once daily continuously. Abiraterone acetate was administered to patients who had received enzalutamide prior to study entry. Enzalutamide was administered to patients who received prior abiraterone acetate.
Cabazitaxel 25 mg/m^2, was administered intravenously over 1 hour every 3 weeks with oral prednisone 10 mg daily. Premedication included an antihistamine, glucocorticoid (dexamethasone 8 mg or equivalent), and histamine 2 receptor antagonist. Antiemetic prophylaxis was administered at physician's discretion. Primary prophylactic granulocyte-colony stimulating factor was required during each cycle of cabazitaxel. Patients received either abiraterone acetate (1000 mg orally once daily and oral prednisone 5 mg twice daily) or enzalutamide (160 mg orally once daily) continuously. A treatment cycle was 3 weeks in both arms. Abiraterone acetate was given to patients who previously received enzalutamide before study entry. Enzalutamide was given to patients who previously received abiraterone acetate.
Up to a maximum of 2 dose reductions was allowed per patient when necessary due to toxicity and according to the table below:
(§1) Efficacy analysis used all randomized patients. Stratified log-rank tests were used to analyze time-to-event data. The primary analysis compared radiographic progression-free survival between the two treatment groups using a stratified log-rank test. Survival curves were generated using Kaplan-Meier estimates. Hazard ratios and associated 95% confidence intervals [CI] were estimated using a stratified Cox proportional hazards model. Stratified Cochran-Mantel-Haenszel chi-square tests were used to analyze categorical data. Descriptive statistics were used to summarize patient characteristics. The safety population (randomized patients who received at least one dose of study treatment) was used for all safety analyses.

pain in mCRPC patients = test: Same clinical study: pain response and pain progression (BPI-SF); assay type: in vivo, human; details: for Pain progression, HR: cabazitaxel vs abiraterone or enzalutamide
Method: Pain response (PR): was measured using the Brief Pain Inventory-Short Form for pain intensity score and defined as a decrease by >30% from baseline in the Brief Pain Inventory-Short Form pain intensity item scores observed at two consecutive evaluations weeks apart without an increase in analgesic usage score.
Pain response was defined as a decrease≥30% from baseline in BPI-SF pain intensity score with no increased analgesic use. HRQL was assessed using the Functional Assessment of Cancer Therapy-Prostate (FACT-P) questionnaire. Pain intensity was defined using item 3 of the validated Brief Pain Inventory-Short Form (BPI-SF), which rates pain at its worst in the last 24 hours on a scale of 0 (no pain) to 10 (worst imaginable pain). Analgesic consumption was reported by local investigators and coded by the World Health Organization's analgesic ladder (0=no analgesic; 1=non-opioid analgesics; 2=opioid analgesics for moderate pain; 3=opioids for severe pain). […] A clinically meaningful improvement or deterioration of total FACT-P score was defined as a difference of ±10 points from baseline. Clinically meaningful changes in HRQL and pain response were confirmed at two consecutive evaluations≥3 weeks apart during the on-treatment period. Survival curves were generated by Kaplan-Meier estimates.
as §1

[2] = system: patients with mCRPC who progressed during or after docetaxel; details: every 3 weeks with prednisone 10 mg daily; cabazitaxel 25 mg/m^2, mitoxantrone 12 mg/m^2; cited from earlier work
[3] = human, in vivo, listed as cabazitaxel

For CO[C@H]1C(=O)[C@]2(C)[C@@H](OC)C[C@H]3OC[C@@]3(OC(C)=O)[C@H]2[C@H](OC(=O)c2ccccc2)[C@]2(O)C[C@H](OC(=O)[C@H](O)[C@@H](NC(=O)OC(C)(C)C)c3ccccc3)C(C)=C1C2(C)C [Cabazitaxel, 4α-acetoxy-2α-benzoyloxy-5β,20-epoxy-1p-hydroxy-7β,10β-dimethoxy-9-oxo-11-taxen-13α-yl (2R,3S)-3-tert-butoxycarbonylamino-2-hydroxy-3-phenylpropionate], which “Grade ≥3 neutropenia, measured at nadir by blood test” value [1] is on record?
The value was 55 patients.

And the “Anemia (laboratory abnormality)” value ([1]; All grades)?
Its value is “(99.2) %”.

What about the Constipation ([1]; All grades) of the same molecule?
The Constipation was 19 n.

What about the Hematuria ([1]; All grades) of the same molecule?
The Hematuria was 19 n.

And the “Hypokalemia (laboratory abnormality)” value ([1]; All grades)?
Its value is “(12.0) %”.

What about the “Leukopenia (laboratory abnormality)” value ([1]; All grades) of the same molecule?
Its value is “(74.4) %”.

And the “Thrombocytopenia (laboratory abnormality)” value ([1]; All grades)?
Its value is “(40.8) %”.

What about the Alopecia ([1]; Grade ≥3) of the same molecule?
The Alopecia was 0 n.

What about the “Anemia (laboratory abnormality)” value ([1]; Grade ≥3) of the same molecule?
Its value is “(8.0) %”.

What about the Arthralgia ([1]; Grade ≥3) of the same molecule?
The Arthralgia was 0 n.

And the Asthenia/fatigue ([1]; Grade ≥3)?
Its Asthenia/fatigue is 4.0%.

And the “Bladder and urethral symptoms” value ([1]; Grade ≥3)?
The value was 0 n.

And the Cardiac disorders ([1]; Grade ≥3)?
The Cardiac disorders was 0.8%.

What about the Constipation ([1]; Grade ≥3) of the same molecule?
The Constipation was 0 n.

What about the Diarrhea ([1]; Grade ≥3) of the same molecule?
The Diarrhea was 3.2%.

What about the Dysgeusia ([1]; Grade ≥3) of the same molecule?
The Dysgeusia was 0 n.

What about the Dyspnea ([1]; Grade ≥3) of the same molecule?
The Dyspnea was 0 n.

What about the Febrile neutropenia ([1]; Grade ≥3) of the same molecule?
The Febrile neutropenia was 3.2%.

And the “Hypokalemia (laboratory abnormality)” value ([1]; Grade ≥3)?
The value was “(0.8) %”.

What about the “Leukopenia (laboratory abnormality)” value ([1]; Grade ≥3) of the same molecule?
Its value is “(32.0) %”.

And the Musculoskeletal pain/discomfort ([1]; Grade ≥3)?
Its Musculoskeletal pain/discomfort is 1.6%.

And the Nausea/vomiting ([1]; Grade ≥3)?
Its Nausea/vomiting is 0 n.

What about the Peripheral edema ([1]; Grade ≥3) of the same molecule?
Its Peripheral edema is 0 n.

And the Peripheral neuropathy ([1]; Grade ≥3)?
The Peripheral neuropathy was 3.2%.

And the Psychiatric disorders ([1]; Grade ≥3)?
The Psychiatric disorders was 0 n.

What about the Renal disorders ([1]; Grade ≥3) of the same molecule?
Its Renal disorders is 3.2%.

What about the “Spinal cord and nerve root disorders” value ([1]; Grade ≥3) of the same molecule?
The value was 2.4%.

And the Stomatitis ([1]; Grade ≥3)?
Its Stomatitis is 0 n.

What about the “Thrombocytopenia (laboratory abnormality)” value ([1]; Grade ≥3) of the same molecule?
The value was “(3.2) %”.

What about the Weight decreased ([1]; Grade ≥3) of the same molecule?
The Weight decreased was 0 n.

And the “Grade 5 adverse events related to bronchial aspiration” value ([1]; human, in vivo)?
The value was “one”.

What about the “Grade 5 adverse events related to general health deterioration due to progressive disease” value ([1]; human, in vivo) of the same molecule?
The value was “two”.

What about the “Grade 5 adverse events related to head injury” value ([1]; human, in vivo) of the same molecule?
Its value is “one”.

And the “Grade 5 adverse events related to infections” value ([1]; human, in vivo)?
The value was “two”.

And the “Grade 5 adverse events related to spinal cord compression” value ([1]; human, in vivo)?
Its value is “one”.

And the Nail disorders ([1]; human, in vivo)?
Its Nail disorders is “no nail disorders were reported”.

And the “Any adverse event leading to permanent treatment discontinuation” value [1, 3]?
Its value is 19.8%.

What about the Any adverse events [1, 3] of the same molecule?
Its Any adverse events is 98.4%.

And the “Any grade ≥3 adverse events” value [1, 3]?
Its value is 56.3%.

What about the “Any serious adverse events” value [1, 3] of the same molecule?
The value was 38.9%.

What about the “Grade ≥3 adverse events occurring more frequently in patients ≥70 years of age” value ([1]; ≥70 vs <70 years) of the same molecule?
The value was “asthenia, diarrhea and febrile neutropenia”.

What about the “Pain (BPI-SF), Kaplan-Meier probability of no deterioration at 3 months” value (pain in mCRPC patients; 3 months) of the same molecule?
Its value is 87.8.

What about the “Probability of not having pain progression after 12 months” value (pain in mCRPC patients; 12 months) of the same molecule?
The value was 66.2%.

And the “Pain progression, HR” value (pain in mCRPC patients)?
The value was 0.55*.

And the “Pain progression, HR” value (pain in mCRPC patients; listed as cabazitaxel)?
The value was 0.55.

And the “Patients with a confirmed pain response” value (pain in mCRPC patients; evaluable 111 and 109)?
The value was 50 n.

And the “Patients with a confirmed pain response” value (pain in mCRPC patients; evaluable patients, listed as cabazitaxel)?
Its value is 45.0%.

What about the “Median time to pain progression (BPI-SF)” value (pain in mCRPC patients; human, in vivo) of the same molecule?
The value was “NE (NE-NE)”.

What about the “Pain (BPI-SF) deterioration events” value (pain in mCRPC patients; human, in vivo) of the same molecule?
Its value is 22.5%.

And the “Pain (BPI-SF) deterioration events, n/nT” value (pain in mCRPC patients; human, in vivo)?
The value was 25/111.

And the “Median time to pain progression (BPI-SF)” value (pain in mCRPC patients; [3])?
The value was “not reached”.

And the “Median overall survival, TROPIC trial” value [2]?
The value was 15.1 months.
